System: HBV in HepG2-NTCP cells
Assay: Inhibition of HBV infection in HepG2-NTCP cells by HBx118–127
Assay type: cell-based
Conditions: unrelated control peptide, MOI 200, day 8
Procedure: We took advantage of the structural information of the HBx-aa113–135/Bcl-xL complex to develop potential HBV inhibitors. […] BH3-only mimetics, […] and ABT-737, were included as controls. […] We also used HBV-infected HepG2-NTCP cells to evaluate the inhibitory effect of the HBx-aa118–127 peptide on HBV replication, by treating the cells with the peptide at 12.5, 50, and 200 µg/ml concentrations, respectively.
Cytoplasmic HBV viral particles were isolated and the viral DNA replication intermediates were quantified (Methods). […] The lysate was analyzed by immunoblotting using antibodies to caspase-3 (CASP3) and GAPDH (glyceraldehyde 3-phosphate dehydrogenase). c, d The HBx-aa113–135, HBx-aa118–127, or the control peptides were delivered into HepG2.2.15 cells using PEP-1 nanoparticles (Methods). The levels of HBV DNA (c) and the levels of HBV S-antigen (HBsAg) expression (d) in culture medium collected from HepG2.2.15 cells were measured (Methods). […] Data shown represent mean ± SD. Significance is indicated on the top. Not significant (ns): *P < 0.05, **P < 0.01; two-tailed unpaired t tests (n = 3 biologically independent samples). Source data are provided as a Source Data file
The levels of HBsAg, HBeAg, and HBcAg expression were measured by chemiluminescence, using Commercial Assay Kit (Wantai, Beijing, China). Northern blot analysis of HBV RNA, Southern blot analysis of HBV DNA, and real-time PCR quantification of HBV DNA are described in the Supplementary Methods.

SSTTSTGPCKTCTTPAQGTSMFP-K-biotin [Control, equal-length unrelated control biotin-labeled peptide]
HBV DNA, HepG2-NTCP cell (replicate 1): 0.996 fold-change to control | HBeAg, HepG2-NTCP cell (replicate 1): 1.091 fold-change to control | HBV DNA, HepG2-NTCP cell (replicate 2): 0.822 fold-change to control | HBeAg, HepG2-NTCP cell (replicate 2): 1.003 fold-change to control | HBV DNA, HepG2-NTCP cell (replicate 3): 1.182 fold-change to control | HBeAg, HepG2-NTCP cell (replicate 3): 0.906 fold-change to control
